Literature values as cited in patent publication EP0788741B1 (priority 1996, dated 1997).

Tested on: Australorbis Glabratus
Settings: Public Health Report, Vol. 82, No. 9; cited from earlier work

| SMILES | concentration effective to kill Puerto Rican snails |
| --- | --- |
| CCCCCCCCCCCCCN(C)C.CCCCCCCCCCCCCN(C)C.O=C(O)C1C2CCC(O2)C1C(=O)O [di (N,N-dimethyltridecylamine) salt of Endothall] | 5 ppm |
| CCCCCCCCCCCCCN(C)C.O=C(O)C1C2CCC(O2)C1C(=O)O [mono (N,N-dimethyltridecylamine) salt of Endothall] | 10 ppm |
